Source: patent publication US20140329912A1, “CONTRACEPTIVE COMPOSITIONS AND METHODS OF CONTRACEPTION” (INTEGRITY PHARMACEUTICALS, LLC, priority 2011, published 2014)

Tested on: Sperms
Experiment: Toxicity screening: cell viability by MTS assay
Type: cell-based, mice
Conditions: for Average absorbance of cell-reduced MTS at 490 nm: average of trials 1-3; for Corrected average absorbance of cell-reduced MTS at 490 nm: culture media background subtracted
Procedure: Male BALB/c mice (12-16 week old) were euthanized by CO2-inhalation. The cauda epididymes was clipped and the upper portions of the vas deferens freed from surrounding tissue. Three-four cuts were made using scissors and forceps across the epididymes and several cuts along the length of the vas deferens. Sperm were allowed to swim out of the tissue. The dish was placed in a 5% CO2 incubator set at 37° C. for 10-15 minutes. The solution of sperm was diluted (50 μl sperm+450 μl complete medium) in Whittens/HCO3/BSA. Sperm was removed from the very top or sides of sperm drop to obtain the sperm with highest motility. The dish was then returned to the 5% CO2 incubator set at 37° C. to allow the sperm to capacitate for 1-3 hrs prior to use.
In addition, cell viability with n-propyl bromide was measured by MTS assay (Promega, Madison, Wis.). MTS [3-(4,5-dimethylthiazol-2-yl)-5-(3-carboxymethoxyphenyl)-2-(4-sulfophenyl)-2H-tetrazolium, inner salt] was utilized according to the manufacturer's instructions. The culture growth medium consisted of Whittens-HEPES complete media, (pH 7.2-7.4) prepared and supplemented with 30 mM NaHCO3 and 10 mg/mL BSA (Bovine Serum Albumin, Sigma A0281, fatty acid free). 250 mL of Whittens-Hepes complete media includes 1461 mg of NaCl, 87.6 mg of KCl, 40.8 mg of KH2PO4, 36.1 mg of MgSO4, 247.8 mg of glucose (dextrose), 22.01 mg of pyruvic acid, 130.92 mg of lactic acid (hemi-Ca), and 1191.5 mg of HEPES. After treatments of the sperms, 30 μL of MTS solution was added to each well and pipetted up and down for ten times to ensure properly mixing and incubation was prolonged for 2 h at 37° C., 5% CO2.
Absorbance observations for trials 1-3 and calculated average are expressed as optical density. The absorbance of cell-reduced MTS was read at 490 nm on a spectrophotometer Spectra Max Plus 384, and optical density for absorbance readings is provided in Table II. Absorbance is directly proportional to the number of living cells in culture. Thus, a reduction in absorbance normalized to a control indicates toxicity to a cell. Background absorbance was measured for the culture media only in three trials. An average absorbance was calculated from the three trials. The average optical density for the three trials for the culture media (background) was then subtracted from the average optical density of the various concentration assays for n-propyl bromide (expressed in terms of ppm of n-propyl bromide). Three control trials using only phosphate buffered saline were also measured. The corrected, average optical density of each of the experimental assays was then compared to the corrected, average optical density of the control (PBS only) assays. The comparison is expressed as the percentage of MTS reduction relative to the normalized absorbance of control samples.

CCCBr [n-propyl bromide, 1-bromopropane]
100%: % of control (MTS reduction relative to PBS only control) (1 ppm) | % of control (MTS reduction relative to PBS only control) (5 ppm) | % of control (MTS reduction relative to PBS only control) (12.5 ppm) | % of control (MTS reduction relative to PBS only control) (25 ppm) | % of control (MTS reduction relative to PBS only control) (50 ppm)
0.6 optical density: Absorbance of cell-reduced MTS at 490 nm, Trial 2 (100 ppm) | Average absorbance of cell-reduced MTS at 490 nm (100 ppm)
0.3 optical density: Absorbance of cell-reduced MTS at 490 nm, Trial 3 (0.1 ppm) | Absorbance of cell-reduced MTS at 490 nm, Trial 2 (5 ppm) | Average absorbance of cell-reduced MTS at 490 nm (5 ppm) | Average absorbance of cell-reduced MTS at 490 nm (12.5 ppm) | Absorbance of cell-reduced MTS at 490 nm, Trial 1 (25 ppm) | Average absorbance of cell-reduced MTS at 490 nm (25 ppm) | Average absorbance of cell-reduced MTS at 490 nm (50 ppm)
90%: % of control (MTS reduction relative to PBS only control) (0.1 ppm)
0.0 optical density: Corrected average absorbance of cell-reduced MTS at 490 nm (0.1 ppm)
0.1 optical density: Absorbance of cell-reduced MTS at 490 nm, Trial 2 (0.1 ppm) | Absorbance of cell-reduced MTS at 490 nm, Trial 3 (1 ppm) | Corrected average absorbance of cell-reduced MTS at 490 nm (1 ppm) | Corrected average absorbance of cell-reduced MTS at 490 nm (5 ppm) | Absorbance of cell-reduced MTS at 490 nm, Trial 3 (12.5 ppm) | Corrected average absorbance of cell-reduced MTS at 490 nm (12.5 ppm) | Corrected average absorbance of cell-reduced MTS at 490 nm (25 ppm) | Absorbance of cell-reduced MTS at 490 nm, Trial 3 (50 ppm) | Corrected average absorbance of cell-reduced MTS at 490 nm (50 ppm)
0.7 optical density: Absorbance of cell-reduced MTS at 490 nm, Trial 3 (100 ppm)
400%: % of control (MTS reduction relative to PBS only control) (100 ppm)
0.5 optical density: Absorbance of cell-reduced MTS at 490 nm, Trial 2 (50 ppm)
0.4 optical density: Absorbance of cell-reduced MTS at 490 nm, Trial 2 (1 ppm) | Absorbance of cell-reduced MTS at 490 nm, Trial 3 (5 ppm) | Absorbance of cell-reduced MTS at 490 nm, Trial 1 (12.5 ppm) | Absorbance of cell-reduced MTS at 490 nm, Trial 2 (12.5 ppm) | Absorbance of cell-reduced MTS at 490 nm, Trial 2 (25 ppm) | Absorbance of cell-reduced MTS at 490 nm, Trial 1 (100 ppm)
0.2 optical density: Absorbance of cell-reduced MTS at 490 nm, Trial 1 (0.1 ppm) | Average absorbance of cell-reduced MTS at 490 nm (0.1 ppm) | Absorbance of cell-reduced MTS at 490 nm, Trial 1 (1 ppm) | Average absorbance of cell-reduced MTS at 490 nm (1 ppm) | Absorbance of cell-reduced MTS at 490 nm, Trial 1 (5 ppm) | Absorbance of cell-reduced MTS at 490 nm, Trial 3 (25 ppm) | Absorbance of cell-reduced MTS at 490 nm, Trial 1 (50 ppm)
